The nature of data set [1]: solubility. The class given is physicochemical.
The subject of data set [2] is Saccharomyces cerevisiae. The note with it: cited from earlier work.
Data set [3] relates to hyphal fungi. The note with it: cited from earlier work.
The subject of data set [4] is Candida albicans. The conditions noted are these: cited from earlier work.
Data set [5] deals with pronase from Streptomyces griseus. Put plainly: pronase treatment. As for the experimental part:
The enzymatic hydrolysis of rhizocticine B (L-Val-L-Arg-L-APPA) to rhizocticine A with removal of valine is effected with pronase from Streptomyces griseus, a peptidase of low specificity. The enzymatic degradation of L-Val-L-Arg-L-APPA is effected quantitatively within a few minutes (approximately 15 minutes), the antifungal activity being obtained. By removing the N-terminal amino acid valine, rhizocticine A is formed. The hydrolysis is confirmed by thin-layer chromatography and ion-exchanger/amino acid analysis.

Data set [6] relates to fungi. Briefly: antifungal activity of isolated tripeptides. The conditions noted are these: isolated by HPLC from rhizocticine B isolates. Type of data set: cell-based.
Data set [7] relates to thermolysin. Briefly: thermolysin (2 mg/ml) in 0.05N N-ethylmorpholinium acetate, 0.01 M CaCl2 ×6H2 O (pH 7.8). The conditions noted are these: 41° C., up to 30 hours.
For data set [8], the system named is pronase. Put plainly: pronase from Streptomyces griseus. The note with it: up to 12 hours.

The values below come from patent US5095139A (Ciba-Geigy Corporation, priority 1986, dated 1992).

Take `N[C@@H](/C=C\CP(=O)(O)O)C(=O)O` (stereo in doubt) [L-APPA, L-2-amino-5-phosphono-3-cis-pentenoic acid]: the Solubility entry in data set [1] (35% ethanol) is reported as “readily soluble”; in data set [1] (apolar solvents), “insoluble”; in data set [1] (ethanol and higher alcohols), “moderately soluble”; in data set [1] (water) it was “readily soluble”.

Take `C[C@H](N)C(=O)N[C@@H](C[C@@H]1CCC(=O)[C@@H]2O[C@H]12)C(=O)O` [Bacilysin, N-alanyl-3-(2,3-epoxycyclohexanon-4-yl)-alanine]: the inhibition result in data set [2] and in data set [4] was “inhibits” in each case. The action result in data set [3] is on record as “virtually no action”.

As to `N=C(N)NCCC[C@H](N)C(=O)N[C@@H](/C=C\CP(=O)(O)O)C(=O)O` [rhizocticine A, L-Arg-L-APPA], the Solubility result in data set [1] (35% ethanol) is reported as “readily soluble”; in data set [1] (apolar solvents), “insoluble”; in data set [1] (ethanol and higher alcohols), “moderately soluble”; in data set [1] (water) it was “readily soluble”. For the same compound, the “loss of activity of the dipeptide formed” value in data set [5] (after 12 hours of pronase treatment) was “no loss of activity”. In addition, the “behaviour during the pronase treatment” value in data set [5] (native compound) is recorded as “remains inert”.

For `CC(C)[C@H](N)C(=O)N[C@@H](CCCNC(=N)N)C(=O)N[C@@H](/C=C\CP(=O)(O)O)C(=O)O` [rhizocticine B, L-Val-L-Arg-L-APPA], the Solubility result in data set [1] (35% ethanol) is “readily soluble”; in data set [1] (apolar solvents) it was “insoluble”; in data set [1] (ethanol and higher alcohols), “moderately soluble”; in data set [1] (water), “readily soluble”. In addition, the “time for quantitative enzymatic degradation (removal of N-terminal valine)” value in data set [5] (pronase) is reported as “approximately 15 minutes”.

`CC[C@H](C)[C@H](N)C(=O)N[C@@H](CCCNC(=N)N)C(=O)N[C@@H](/C=C\CP(=O)(O)O)C(=O)O` [rhizocticine C, L-Ile-L-Arg-L-APPA]: in data set [6], the antifungal activity entry was “antifungal”.

For `CC(C)C[C@H](N)C(=O)N[C@@H](CCCNC(=N)N)C(=O)N[C@@H](/C=C\CP(=O)(O)O)C(=O)O` [rhizocticine D, L-Leu-L-Arg-L-APPA], the antifungal activity result in data set [6] is reported as “antifungal”.

L-Arg-L-APPA: in data set [7], the cleaved bond result is listed as “L-Arg-L-APPA”. Besides, in data set [8], the not cleaved entry is listed as “remains inert during the pronase treatment”.

As to L-Val-L-Arg-L-APPA, the cleaved bond result in data set [8] was “L-Val-L-Arg, approximately 15 minutes”.
